Results published in patent publication US7432306B2, “Method for preparing novel transcription factors and use” (NRL Pharma, Inc., priority 2005, dated 2008).

How the values were obtained:
ICR male mice [1] = test: Mouse serum cholesterol lowering action; assay type: in vivo; details: one week; for Total Cholesterol in Serum: ICR mice; for Rate of Change (total cholesterol in serum): vs control
Description: Thirty 5-week-old ICR male mice were bred by allowing mouse standard feed and water ad libitum. The mice were randomly classified into three groups, and one group was taken as a control group to which no drug was administered, and feed containing 0.1% of 4-O-methylasco-chlorin diethylacetal (MAC-DEA) and feed containing 0.05% of MAC-DEA were given to the other two groups, respectively. The body weight, the intake of feed and the amount of drinking water were measured every other day. One week after giving feed, blood was collected and the total cholesterol in serum and the neutral fat were determined.

db/db mice = test: Action of MAC-DEA on db/db mouse; assay type: in vivo; details: for Blood Sugar / Serum Insulin / Serum Neutral Fat: db/db mice
Description: Eighteen 7-week-old male db/db mice were bred for one week by allowing mouse standard feed and water ad libitum. The mice were randomly classified into three groups of six mice and each group was housed in a urine collection rat cage and the intake of feed, the amount of drinking water, the amount of urine and the amount of urine sugar excreted were determined everyday. Feed CE-2 was given to the first group as a control group, and feed CE-2 mixed with 0.05% of 4-O-methylascochlorin diethylacetal (MAC-DEA) and feed CE-2 mixed with 0.1% of MAC-DEA were given to the second group and the third group, respectively. The mice were allowed feed and drinking water ad libitum and on the 7th day, blood was collected and the blood sugar, the serum neutral fat and the serum insulin were determined.

ICR male mice [2] = test: Syngeneic Langerhans islet transplanted streptozotocin diabetic mouse; assay type: in vivo
Description: Thirty 5-week-old ICR male mice were randomly classified into six groups and all mice were fed for one week by allowing mouse standard diet CE-2 (a product of Japan CLEA Co., Ltd.). Then, the mice in the first to third groups were intravenously injected with 50 mg/kg of streptozotocin and after one week, blood was collected from the orbit and the blood sugar and the serum insulin were determined to confirm the onset of insulin-dependent diabetes. Ten days after the streptozotocin injection, pancreatic Langerhans islets were removed from the age-matched normal mice in the fourth to sixth groups and 20 pancreatic Langerhans islets were subcutaneously transplanted in the back of each of the diabetic mice. Immediately after transplantation, diet CE-2 containing 0.1% of MAC-DE was given to the first group, diet CE-2 containing 0.05% of MAC-DE was given to the second group and CE-2 was given to the third group. The diabetic mice were further fed for 60 days, and blood was collected from the orbit and the blood sugar and the serum insulin were determined every 15 days.

ICR male mice [3] = test: Fat accumulation in ICR mice fed 13 weeks; assay type: in vivo, mouse; details: liver and epididymal adipose tissue
Text: Thirty 5-week-old ICR male mice were randomly classified into three group of ten mice, and mouse standard diet CE-2 (a product of Japan CLEA Co., Ltd.) was given to the first group, and diet CE-2 containing 0.1% of 4-O-methylascochlorin diethylacetal (MAC-DE) was given to the second group and diet CE-2 containing 0.05% of MAC-DE was given to the third group and the mice were continued to be fed. […] After 13 weeks, the liver and the epididymal adipose tissue were removed from the mice and lipid was extracted by the Folch method and the triglyceride content was determined. As a result, the triglyceride content in the 0.05% MAC-DE group was reduced 27%, and the triglyceride content in the 0.1% MAC-DE group was reduced 35%. From this fact it would be understood that MAC-DE inhibits fat accumulation.

ddY male mice = test: Internal fat accumulation in ddY mice fed 13 weeks; assay type: in vivo, mouse; details: livers and epididymal adipose tissues
Text: Thirty 5-week-old ddY male mice were randomly classified into three groups of ten mice and fed for 13 weeks by allowing feed and water ad libidum. Meanwhile, the mouse standard diet CE-2 (a product of Japan CLEA Co., Ltd.) was given to the first group, and diet CE-2 containing 0.1% of 4-O-methylascochlorin diethylacetal (MAC-DE) was given to the second group of mice and diet CE-2 containing 0.05% of MAC-DE was given to the third group. […] After 13 weeks, the livers and the epididymal adipose tissues were removed from the mice and lipid was extracted by the Folch method and the triglyceride content was determined. As a result, the triglyceride content in the 0.05% MAC-DE group was reduced 27%, and the neutral fat content in the 0.1% MAC-DE group was reduced 35%. From this fact it would be understood that MAC-DE inhibits internal fat accumulation.

[4] = system: Ehrlich ascites carcinoma; test: Inhibition of Ehrlich solid tumor; assay type: in vivo, mouse; details: 7 days, 21st day
Description: Eighteen five-week-old ICR male mice were subcutaneously inoculated with 10^6 cells of Ehrlich ascites carcinoma […] and after 24 hours, and the mice were classified into three groups of six mice, and 4-O-methylascochlorin diethylacetal (MAC-DE) was suspended in 0.2% Tween-80 and 1 mg/kg and 4 mg/kg were orally administered to the first group and the second group twice a day at 9:00 and 20:00, respectively, and a MAC-DE-free Tween-80 aqueous solution was given to the third group as a control group. The administration was continued for successive 7 days and after completion of the administration, the mice were fed for two weeks. On the 21st day, a nodular tumor was removed from the mice and the body weight was determined and the effect of MAC-DE on the inhibition of tumor growth was examined.

[5] = cited from earlier work
C57BL ksj (db/db) = details: hereditary obese diabetic mouse C57BL ksj (db/db); cited from earlier work
[6] = cited from earlier work; remark: listed apart in the source

CCOC(OCC)c1c(C)c(Cl)c(OC)c(C/C=C(C)/C=C/[C@@]2(C)[C@H](C)CCC(=O)[C@@H]2C)c1O [MAC-DEA, 4-O-methylascochlorin diethylacetal]
Total Cholesterol in Serum (ICR male mice [1]; 0.05% in feed): 97 mg/dL | Rate of Change (total cholesterol in serum) (ICR male mice [1]; 0.05% in feed): −17.8% | Total Cholesterol in Serum (ICR male mice [1]; 0.1% in feed): 90 mg/dL | Rate of Change (total cholesterol in serum) (ICR male mice [1]; 0.1% in feed): −23.7% | Blood Sugar (db/db mice; 0.05% in feed CE-2, 7th day): 273 mg/dL | Serum Insulin (db/db mice; 0.05% in feed CE-2, 7th day): 175 ·U/ml | Serum Neutral Fat (db/db mice; 0.05% in feed CE-2, 7th day): 259 mg/dL | Amount of Drinking Water (db/db mice; 0.05% in feed CE-2, db/db mice): 5.4 ml/mouse | Amount of Urine (db/db mice; 0.05% in feed CE-2, db/db mice): 2.5 ml/mouse | Amount of Urine Sugar Excreted (db/db mice; 0.05% in feed CE-2, db/db mice): 47 mg/dL | Blood Sugar (db/db mice; 0.1% in feed CE-2, 7th day): 239 mg/dL | Serum Insulin (db/db mice; 0.1% in feed CE-2, 7th day): 132 ·U/ml | Serum Neutral Fat (db/db mice; 0.1% in feed CE-2, 7th day): 248 mg/dL | Amount of Drinking Water (db/db mice; 0.1% in feed CE-2, db/db mice): 3.2 ml/mouse | Amount of Urine (db/db mice; 0.1% in feed CE-2, db/db mice): 1.7 ml/mouse | Amount of Urine Sugar Excreted (db/db mice; 0.1% in feed CE-2, db/db mice): 10 mg/dL | Blood Sugar (ICR male mice [2]; 0.05% in diet CE-2, Day 0): 566 mg/dL | Insulin (ICR male mice [2]; 0.05% in diet CE-2, Day 0): <2 ·U/ml | Blood Sugar (ICR male mice [2]; 0.05% in diet CE-2, Day 15): 143 mg/dL | Insulin (ICR male mice [2]; 0.05% in diet CE-2, Day 15): 5 ·U/ml | Blood Sugar (ICR male mice [2]; 0.05% in diet CE-2, Day 30): 148 mg/dL | Insulin (ICR male mice [2]; 0.05% in diet CE-2, Day 30): 5 ·U/ml | Blood Sugar (ICR male mice [2]; 0.05% in diet CE-2, Day 45): 125 mg/dL | Insulin (ICR male mice [2]; 0.05% in diet CE-2, Day 45): 6 ·U/ml | Blood Sugar (ICR male mice [2]; 0.05% in diet CE-2, Day 60): 118 mg/dL | Insulin (ICR male mice [2]; 0.05% in diet CE-2, Day 60): 6 ·U/ml | Blood Sugar (ICR male mice [2]; 0.1% in diet CE-2, Day 0): 583 mg/dL | Insulin (ICR male mice [2]; 0.1% in diet CE-2, Day 0): <2 ·U/ml | Blood Sugar (ICR male mice [2]; 0.1% in diet CE-2, Day 15): 121 mg/dL | Insulin (ICR male mice [2]; 0.1% in diet CE-2, Day 15): 5 ·U/ml | Blood Sugar (ICR male mice [2]; 0.1% in diet CE-2, Day 30): 118 mg/dL | Insulin (ICR male mice [2]; 0.1% in diet CE-2, Day 30): 6 ·U/ml | Blood Sugar (ICR male mice [2]; 0.1% in diet CE-2, Day 45): 119 mg/dL | Insulin (ICR male mice [2]; 0.1% in diet CE-2, Day 45): 6 ·U/ml | Blood Sugar (ICR male mice [2]; 0.1% in diet CE-2, Day 60): 131 mg/dL | Insulin (ICR male mice [2]; 0.1% in diet CE-2, Day 60): 6 ·U/ml | triglyceride content, reduction (ICR male mice [3]; 0.05% in diet): 27% | triglyceride content, reduction (ICR male mice [3]; 0.1% in diet): 35% | triglyceride content, reduction (ddY male mice; 0.05% in diet): 27% | neutral fat content, reduction (ddY male mice; 0.1% in diet): 35% | Inhibition Ratio (tumor) ([4]; 1 mg/kg oral twice a day): 81% | Weight of Tumor ([4]; 1 mg/kg oral twice a day): 0.25 g/mouse | Inhibition Ratio (tumor) ([4]; 4 mg/kg oral twice a day): 96% | Weight of Tumor ([4]; 4 mg/kg oral twice a day): 0.06 g/mouse

CC(C=CC1(C)C(C)CCC(=O)C1C)=CCc1c(O)c(C=O)c(C)c(Cl)c1OCC(=O)O (centres unmarked) [AS-6, 4-O-carboxymethylasco-chlorin]
soluble in water at a concentration ([5]; pH of 7.2 to 7.7 in the small intestine): ≥ 6% | carbohydrate metabolism (C57BL ksj (db/db)): improves in the carbohydrate metabolism | toxicity to the liver ([6]; oral, blood concentration quickly rises): the toxicity to the liver is easily exhibited | excretion ([6]; orally administered to an animal): quickly excreted

COc1c(Cl)c(C)c(C=O)c(O)c1C/C=C(C)/C=C/[C@@]1(C)[C@H](C)CCC(=O)[C@@H]1C [MAC, 4-O-Methylascochlorin]
solubility in water [5]: less than 0.7 μg/ml | bioavailability ([6]; oral, animals): very poor bioavailability
